Activity calls are given as the source filed them. How the calls were made is not given here.

Drawing on PubChem BioAssay AID1259407 (Chemical Carcinogenesis Research Information System (CCRIS), 2018), this text covers mutagenic call for 4 compounds.

In this data set the test system is CCRIS mutagenicity, Ames/micronucleus/aberration tests. The data set can be described thus: CCRIS mutagenicity studies.
[1] abbreviates: Test System: AMES SALMONELLA TYPHIMURIUM, Strain/Indicator: TA98, Metabolic Activation: NONE, Method: STANDARD PLATE.
The mark [2] stands for this setting: Test System: AMES SALMONELLA TYPHIMURIUM, Strain/Indicator: TA100, Metabolic Activation: NONE, Method: STANDARD PLATE.
[3] abbreviates: Test System: AMES SALMONELLA TYPHIMURIUM, Strain/Indicator: TA1535, Metabolic Activation: NONE, Method: STANDARD PLATE.
[4] abbreviates: Test System: AMES SALMONELLA TYPHIMURIUM, Strain/Indicator: TA1537, Metabolic Activation: NONE, Method: STANDARD PLATE.

On to `O=C/C=C/C=C\c1ccc([N+](=O)[O-])cc1`, for which the mutagenic call runs as follows: (Test System: AMES SALMONELLA TYPHIMURIUM, Strain/Indicator: 98(NR), Metabolic Activation: HAMSTER, LIVER, S-9, AROCLOR 1254, Method: STANDARD PLATE) “active; positive”; (Test System: AMES SALMONELLA TYPHIMURIUM, Strain/Indicator: 98(NR), Metabolic Activation: NONE, Method: STANDARD PLATE) “active; positive”; (Test System: AMES SALMONELLA TYPHIMURIUM, Strain/Indicator: 98(NR), Metabolic Activation: RAT, LIVER, S-9, AROCLOR 1254, Method: STANDARD PLATE) “active; positive”; (Test System: AMES SALMONELLA TYPHIMURIUM, Strain/Indicator: 100(NR), Metabolic Activation: HAMSTER, LIVER, S-9, AROCLOR 1254, Method: STANDARD PLATE) “active; positive”; (Test System: AMES SALMONELLA TYPHIMURIUM, Strain/Indicator: 100(NR), Metabolic Activation: NONE, Method: STANDARD PLATE) “active; positive”; (Test System: AMES SALMONELLA TYPHIMURIUM, Strain/Indicator: 100(NR), Metabolic Activation: RAT, LIVER, S-9, AROCLOR 1254, Method: STANDARD PLATE) “active; positive”. In addition, the mutagenic call by setting is: (Test System: AMES SALMONELLA TYPHIMURIUM, Strain/Indicator: TA98, Metabolic Activation: HAMSTER, LIVER, S-9, AROCLOR 1254, Method: STANDARD PLATE) “active; positive”; under setting [1], “active; positive”; (Test System: AMES SALMONELLA TYPHIMURIUM, Strain/Indicator: TA98, Metabolic Activation: RAT, LIVER, S-9, AROCLOR 1254, Method: STANDARD PLATE) “active; positive”; (Test System: AMES SALMONELLA TYPHIMURIUM, Strain/Indicator: TA100, Metabolic Activation: HAMSTER, LIVER, S-9, AROCLOR 1254, Method: STANDARD PLATE) “active; positive”; under setting [2], “active; positive”; (Test System: AMES SALMONELLA TYPHIMURIUM, Strain/Indicator: TA100, Metabolic Activation: RAT, LIVER, S-9, AROCLOR 1254, Method: STANDARD PLATE) “active; positive”. Also, the mutagenic call (Test System: AMES SALMONELLA TYPHIMURIUM, Strain/Indicator: TA1535, Metabolic Activation: HAMSTER, LIVER, S-9, AROCLOR 1254, Method: STANDARD PLATE) is “active; positive”; the mutagenic call under setting [3] is “active; positive”; the mutagenic call (Test System: AMES SALMONELLA TYPHIMURIUM, Strain/Indicator: TA1535, Metabolic Activation: RAT, LIVER, S-9, AROCLOR 1254, Method: STANDARD PLATE) is “active; positive”; the mutagenic call under setting [4] was “active; positive”; the mutagenic call (Test System: AMES SALMONELLA TYPHIMURIUM, Strain/Indicator: TA1537, Metabolic Activation: RAT, LIVER, S-9, AROCLOR 1254, Method: STANDARD PLATE) was “active; positive”; the mutagenic call (Test System: Mouse lymphoma, Strain/Indicator: L5178Y (tk+/tk-), Metabolic Activation: None, Method: Suspension/plate) is “active; equivocal (previous evaluation positive)”. In addition, the mutagenic call (Test System: Mouse lymphoma, Strain/Indicator: L5178Y (tk+/tk-), Metabolic Activation: Rat, Liver, S-9, Aroclor 1254, Method: Suspension/plate) is “inactive; negative”.
In the case of `Clc1cccc2c1oc1ccccc12`, the mutagenic call was “inactive; negative” under setting [1]; “inactive; negative” (Test System: AMES SALMONELLA TYPHIMURIUM, Strain/Indicator: TA98, Metabolic Activation: RAT, LIVER, S-9, PHENOBARBITAL AND NAPHTHOFLAVONE, Method: STANDARD PLATE); “inactive; negative” under setting [2]; “inactive; negative” (Test System: AMES SALMONELLA TYPHIMURIUM, Strain/Indicator: TA100, Metabolic Activation: RAT, LIVER, S-9, PHENOBARBITAL AND NAPHTHOFLAVONE, Method: STANDARD PLATE).
Take `CC(C)(C)c1ccc(-c2ccc(N=O)cc2)cc1`: the mutagenic call was “active; positive” under setting [1]; “active; positive” (Test System: AMES SALMONELLA TYPHIMURIUM, Strain/Indicator: TA98, Metabolic Activation: S-9, Method: STANDARD PLATE); “active; positive” under setting [2]; “active; positive” (Test System: AMES SALMONELLA TYPHIMURIUM, Strain/Indicator: TA100, Metabolic Activation: S-9, Method: STANDARD PLATE).
Consider `CCO[Si](C)(C)OCC`, for which the mutagenic call was “inactive; negative” under setting [1]; “inactive; negative” (Test System: AMES SALMONELLA TYPHIMURIUM, Strain/Indicator: TA98, Metabolic Activation: RAT LIVER S-9, AROCLOR 1254, Method: STANDARD PLATE); “inactive; negative” under setting [2]; “inactive; negative” (Test System: AMES SALMONELLA TYPHIMURIUM, Strain/Indicator: TA100, Metabolic Activation: RAT LIVER S-9, AROCLOR 1254, Method: STANDARD PLATE); “inactive; negative” under setting [3]; “inactive; negative” (Test System: AMES SALMONELLA TYPHIMURIUM, Strain/Indicator: TA1535, Metabolic Activation: RAT LIVER S-9, AROCLOR 1254, Method: STANDARD PLATE). The mutagenic call was “inactive; negative” under setting [4]; “inactive; negative” (Test System: AMES SALMONELLA TYPHIMURIUM, Strain/Indicator: TA1537, Metabolic Activation: RAT LIVER S-9, AROCLOR 1254, Method: STANDARD PLATE); “inactive; negative” (Test System: AMES SALMONELLA TYPHIMURIUM, Strain/Indicator: TA1538, Metabolic Activation: NONE, Method: STANDARD PLATE); “inactive; negative” (Test System: AMES SALMONELLA TYPHIMURIUM, Strain/Indicator: TA1538, Metabolic Activation: RAT LIVER S-9, AROCLOR 1254, Method: STANDARD PLATE); “inactive; negative” (Test System: E. COLI, Strain/Indicator: P3078 POLA, Metabolic Activation: NONE, Method: SPOT TEST); “inactive; negative” (Test System: E. COLI, Strain/Indicator: P3078 POLA, Metabolic Activation: RAT LIVER S-9, AROCLOR 1254, Method: SPOT TEST). Further, the mutagenic call (Test System: E. COLI, Strain/Indicator: W3110, Metabolic Activation: NONE, Method: SPOT TEST) is “inactive; negative”; the mutagenic call (Test System: E. COLI, Strain/Indicator: W3110, Metabolic Activation: RAT LIVER S-9, AROCLOR 1254, Method: SPOT TEST) is “inactive; negative”; the mutagenic call (Test System: MOUSE LYMPHOMA, Strain/Indicator: L5178Y (TK+/TK-), Metabolic Activation: NONE, Method: SUSPENSION/PLATE) was “inactive; negative”; the mutagenic call (Test System: MOUSE LYMPHOMA, Strain/Indicator: L5178Y (TK+/TK-), Metabolic Activation: RAT, LIVER, S-9, Method: SUSPENSION/PLATE) was “inactive; negative”.
